Measured values published in BindingDB's records for doi:10.3109/14756366.2013.768987 (Medical University, 2014).

How the values were obtained:
[1] = molecular target: T1, DNA topoisomerase 1 (Homo sapiens, UniProt P11387); test: Topoisomerase I Relaxation Assay; conditions: pH 7.8; 37 °C
T1 sequence (P11387 whole entry): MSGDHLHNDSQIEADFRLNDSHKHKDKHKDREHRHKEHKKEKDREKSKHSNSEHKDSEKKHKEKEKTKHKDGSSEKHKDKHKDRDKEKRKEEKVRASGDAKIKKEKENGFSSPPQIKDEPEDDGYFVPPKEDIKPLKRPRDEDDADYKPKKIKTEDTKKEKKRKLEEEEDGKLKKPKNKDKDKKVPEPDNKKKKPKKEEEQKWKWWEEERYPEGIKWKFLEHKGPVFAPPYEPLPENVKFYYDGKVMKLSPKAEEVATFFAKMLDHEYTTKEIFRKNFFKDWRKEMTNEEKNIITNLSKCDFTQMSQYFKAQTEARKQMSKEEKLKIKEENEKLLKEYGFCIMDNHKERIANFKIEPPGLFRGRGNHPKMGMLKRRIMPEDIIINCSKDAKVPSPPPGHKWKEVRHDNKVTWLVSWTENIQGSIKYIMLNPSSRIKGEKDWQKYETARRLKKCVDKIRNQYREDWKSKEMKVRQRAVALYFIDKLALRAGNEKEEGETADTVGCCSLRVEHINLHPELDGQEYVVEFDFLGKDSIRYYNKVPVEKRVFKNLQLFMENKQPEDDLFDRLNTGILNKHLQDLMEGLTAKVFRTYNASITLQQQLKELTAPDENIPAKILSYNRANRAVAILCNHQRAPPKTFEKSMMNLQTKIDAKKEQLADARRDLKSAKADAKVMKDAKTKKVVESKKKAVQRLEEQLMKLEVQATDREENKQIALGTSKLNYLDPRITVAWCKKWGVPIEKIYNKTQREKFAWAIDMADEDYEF
Method: Supercoiled pHOT1 DNA (0.5 μg) was incubated with four units of human topoisomerase I in relaxation buffer (10mM Tris-HCl (pH 7.8), 1mM EDTA, 0.15M NaCl, 0.1% BSA, 0.1 spermidine, 5% glycerol), in the presence of varying concentrations of the test compounds. Reactions were carried out at 37 °Cfor 1 h and then terminated by the addition of sodium dodecyl sulfate (SDS) to 0.25% and proteinase K to 50 μg/ml. The reaction mixture was subjected to electrophoresis through a 0.8% agarose gel containing […] in TAE buffer ([…] and 1mM EDTA). The gels were stained with ethidium bromide and photographed under UV light. For the quantitative determination of topoisomerase concentration activity, photographic negatives were scanned and the area representing supercoiled DNA, migrating as a single band at the bottom of the gel was measured using UVI-KS4000i gel documentation and analysis system (SyngenBiotech, Sacramento, CA).

[2] = molecular target: DNA topoisomerase I (Homo sapiens); test: Supercoiled pHOT1 DNA (0.5 μg) was incubated with four units of human topoisomerase I in relaxation buffer (10mM Tris-HCl (pH 7.8), 1mM EDTA, 0.15M NaCl, 0.1% BSA, 0.1 spermidine, 5% glycerol), in the presence of varying concentrations of the test compounds. Reactions were carried out at 37 °Cfor 1 h and then terminated by the addition o

IC50 [1] [µM] | IC50 [2] [µM] | SMILES
100 | 50 | Cc1nc[nH]c1C(=O)NNC(=S)NC(=O)c1ccccc1 [DNA topoisomerase inhibitor, 1]
100 | 50 | O=C(NC(=S)NNC(=O)c1cc2ccccc2[nH]1)c1ccccc1 [DNA topoisomerase inhibitor, 2]
250 | 250 | O=C(NNC(=S)Nc1ccccc1)C1CCNCC1 [DNA topoisomerase inhibitor, 3]
250 | 250 | COc1ccc(NC(=S)NNC(=O)C2CCNCC2)cc1 [DNA topoisomerase inhibitor, 4]
250 | 250 | O=C(NNC(=S)Nc1ccc(I)cc1)C1CCNCC1 [DNA topoisomerase inhibitor, 5]
250 | 250 | O=C(NNC(=S)Nc1ccc(Br)cc1)C1CCNCC1 [DNA topoisomerase inhibitor, 6]
> 350 | > 350 | CCc1ccc(NC(=S)NNC(=O)C2CCNCC2)cc1 [DNA topoisomerase inhibitor, 7]
> 350 | > 350 | CCNC(=S)NNC(=O)C1CCNCC1 [DNA topoisomerase inhibitor, 8]

SMILES | IC50 [1] [µM] | IC50 [2] [µM]
COc1cc([C@@H]2c3cc4c(cc3[C@@H](O[C@@H]3O[C@@H]5CO[C@@H](C)O[C@H]5[C@H](O)[C@H]3O)[C@H]3COC(=O)[C@H]23)OCO4)cc(OC)c1O [4'-Demethylepipodophyllotoxin 9-(4,6-O-(R)-ethylidene-beta-D-glucopyranoside)] | > 350 | –
